Legend:
Experiment in all cases: relative viability (nuclei count vs DMSO), 5 days (fraction); higher = more cells survive
[1] = compound: CN1CCC(CNc2ccc3ncc(-c4cccc(OC(F)(F)F)c4)n3n2)CC1 [SGI-1776] + CC(=O)Nc1cccc(-n2c(=O)n(C3CC3)c(=O)c3c(Nc4ccc(I)cc4F)n(C)c(=O)c(C)c32)c1 [Trametinib] (partner 0.02 µM)
Outline: (§1)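 A single step with final 0.05% Triton X-100, 1% formaldehyde and 1 ug/ml Hoechst fixed the cells and stained nuclei 5 days after treatment. Lung cancer cell lines in 1536-well plates had been treated by pin tool the day after seeding with one drug alone or a fixed anchor-drug dose plus five library-drug doses (not always all listed) in √10 steps, and nuclei were counted on 4× images. Relative viability is the ratio of nuclei in treated wells to nuclei in vehicle wells, taken as the median of duplicate plates.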

[2] = compound: Nc1ccccc1NC(=O)c1ccc(CNC(=O)OCc2cccnc2)cc1 [Entinostat] + Cc1cc(Nc2cc(N3CCN(C)CC3)nc(Sc3ccc(NC(=O)C4CC4)cc3)n2)n[nH]1 [Tozasertib] (partner 0.1 µM)
Outline: as §1

[3] = compound: CN1CCC(CNc2ccc3ncc(-c4cccc(OC(F)(F)F)c4)n3n2)CC1 [SGI-1776] + Cc1nc(NC(=O)N2CCC[C@H]2C(N)=O)sc1-c1ccnc(C(C)(C)C(F)(F)F)c1 [Alpelisib] (partner 2 µM)
Outline: as §1

[4] = compound: CN1CCC(CNc2ccc3ncc(-c4cccc(OC(F)(F)F)c4)n3n2)CC1 [SGI-1776] + C[C@]1(O)C[C@@H](c2nc(-c3ccc4ccc(-c5ccccc5)nc4c3)c3c(N)nccn32)C1 [Linsitinib] (partner 1 µM)
Outline: as §1

UMC-11
relative viability ([1]; first compound 0.08 µM): 0.719
relative viability ([1]; first compound 0.8 µM): 0.684
relative viability ([1]; first compound 2.53 µM): 0.787
relative viability ([1]; first compound 8 µM): 0.432
relative viability ([2]; first compound 0.02 µM): 0.218
relative viability ([2]; first compound 0.06325 µM): 0.201
relative viability ([2]; first compound 0.2 µM): 0.206
relative viability ([2]; first compound 0.6325 µM): 0.192
relative viability ([2]; first compound 2 µM): 0.163
relative viability ([3]; first compound 0.08 µM): 0.888
relative viability ([3]; first compound 0.8 µM): 1
relative viability ([3]; first compound 2.53 µM): 0.828
relative viability ([3]; first compound 8 µM): 0.671
relative viability ([4]; first compound 0.08 µM): 1.06
relative viability ([4]; first compound 0.8 µM): 0.987
relative viability ([4]; first compound 2.53 µM): 0.971
relative viability ([4]; first compound 8 µM): 0.836
